Results taken from patent US20060183168A1, “Method for optimizing therapeutic efficacy of nemorubicin” (priority 2002, published 2006).

How the values were obtained:
[1] = molecular target: T1, CYP3A4 (Homo sapiens, UniProt P08684); assay: Metabolic potential of microsomes from cells expressing single human CYP 450 isoenzymes; format: in vitro ADME; details: 50 pmol CYP/ml, nemorubicin 20 μM, NADPH 0.5 mM, 37° C., 20 min; CYP3A4, CYP3A5, CYP1A2, CYP2E1, CYP2D61, CYP2C91, CYP2C8
T1 construct: expressed in transfected cells
Description: Microsomes were obtained from cell cultures overexpressing CYP3A4, CYP3A5, CYP1A2, CYP2E1, CYP2D61, CYP2C91 and CYP2C8. Microsomes (50 pmol CYP/ml) were incubated with nemomubicin (20 μM) and NADPH (0.5 mM) in 0.3M Tris (pH 7.4) at 37° C. for 20 min. Nemorubicin metabolism was quantified by HPLC method.
(§1) High-performance liqid chromatographic (HPLC) system consisted of a Waters Model 510 isocratic pump equipped with autosampler. Detection was performed by a Perkin Elmer fluorescence spectrofotometer LS-5 set at 479 and 552 nm excitation and emission wavelength, respectively. Detector was connected to a Shimadzu C-R3A integrator. The cromatographic separation was performed on a Waters Simmetry C8 reverse phase column. The mobile phase was 10 mM KH2P4/Methanol/CH3CN (45:30:25). The flow rate was 1.5 ml/min. Standard curves of fluorescence versus drug concentration for nemorubicin and metabolites were used to calculate drug concentration in the samples.

[2] = test system: CYP3A4/5; assay: Antibody studies: inhibition of nemorubicin metabolism by human liver microsomes; format: in vitro ADME; details: nemorubicin 20 μM, NADPH 0.5 mM, 10 min at 37° C.
Description: Human liver microsomes were preincubated at 25° C. for 5 min. with and without a monoclonal antibody anti-CYP3A4/5 (MAB-3A4 Genetest) in Tris 0.3M (pH 7.4) before adding nemorubicin (20 μM and NADPH (0.5 mM). After 10 min at 37° C., the amount of nemorubicin metabolites was evaluated by a HPLC system.
as §1

T1 sequence (P08684 whole entry): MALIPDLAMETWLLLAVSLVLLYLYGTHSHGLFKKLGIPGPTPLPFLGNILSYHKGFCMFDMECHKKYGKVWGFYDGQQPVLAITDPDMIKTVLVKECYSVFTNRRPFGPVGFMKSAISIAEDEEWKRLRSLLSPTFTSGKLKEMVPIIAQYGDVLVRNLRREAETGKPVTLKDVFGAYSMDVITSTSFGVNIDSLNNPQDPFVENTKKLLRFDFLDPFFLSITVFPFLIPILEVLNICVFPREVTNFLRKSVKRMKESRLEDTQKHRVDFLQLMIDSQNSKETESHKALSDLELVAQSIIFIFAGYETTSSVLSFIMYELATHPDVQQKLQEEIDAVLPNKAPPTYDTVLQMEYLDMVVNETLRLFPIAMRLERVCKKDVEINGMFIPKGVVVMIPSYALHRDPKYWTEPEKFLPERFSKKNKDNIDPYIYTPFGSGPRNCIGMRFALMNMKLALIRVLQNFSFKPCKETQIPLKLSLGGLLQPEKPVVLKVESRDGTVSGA

SMILES: COc1cccc2c1C(=O)c1c(O)c3c(c(O)c1C2=O)C[C@@](O)(C(=O)CO)C[C@@H]3O[C@H]1C[C@H](N2CCO[C@H](OC)C2)[C@H](O)[C@H](C)O1 [nemorubicin]
- metabolism of nemorubicin by microsomes overexpressing single CYP isoenzymes [1]: Only microsomes from CYP3A4-overexpressing cells were able to metabolize nemorubicin
- isoenzyme responsible for nemorubicin metabolism (antibody inhibition) [2]: only the CYP3A4 isoenzyme is responsible for the metabolism of nemorubicin
